The results in this text go back to PubChem BioAssay (NCI).

“And” between values parts separate entries of the source, which are not always exact repeats. Identical values can stand only once.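 Protocol summary: plate cells (96-well), add compound at 5 concentrations, incubate 48 h, interpolate endpoints linearly. GI50: concentration for 50% inhibition of growth. At the TGI there is no net growth.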

One assay concerns NCI/ADR-RES ovarian. Kind of assay: DTP human tumour cell line panel, 48 h.
As for `Cc1ccc(C(=O)Cc2nc3c([nH]c2=O)c(C)nn3-c2ccccc2)c(C)c1`, the TGI (usually the concentration giving total growth inhibition) is greater than 10 µM.
Consider `Clc1ccccc1NN(Cc1ccccn1)c1ccccc1Cl`, for which the TGI was 47.7 µM.
Consider `Cn1cc(C2=C(c3cn(C)c4ccc(N)cc34)C(=O)NC2=O)c2ccccc21`, for which the GI50 (as a rule, the concentration that inhibits growth by half) was 10.3 µM and the TGI was greater than 25 µM.
With `S=C(N/N=C/c1cc(Cl)cc(Cl)c1)NC12CC3CC(CC(C3)C1)C2`, the GI50 was 7.2 µM and the TGI was greater than 100 µM.
For `CCCCN1C(=O)CC2[C@@H]3CCc4cc(OC)ccc4C3CC[C@]2(C)C1=O` (stereo not given in full), the TGI is greater than 10 µM.
On to `COc1cc2cc(Oc3ccc(NC(=O)c4cccc(C(F)(F)F)c4)cc3)c(C)nc2cc1OC`, for which the GI50 is 4.02 µM and the TGI was greater than 100 µM.
`Cc1nc(SCC(N)=O)c2sc(=S)n(-c3ccccc3)c2n1` came in with a TGI greater than 10 µM.
For `COc1cc(-c2oc3ccccc3c(=O)c2O)cc(OC)c1OC`, the TGI was greater than 100 µM.
On to `CSc1ccc(/C=C2\CNC/C(=C\c3ccc(SC)cc3)C2=O)cc1`, for which the GI50 is 150 µg/mL and the TGI is 150 µg/mL.
Regarding `C/C(=N\O)c1ccc(Nc2cc(-n3nnc4ccccc43)nc3ccccc23)cc1`, the GI50 is 5.22 µM and the TGI came to 16.2 µM.
Take `Clc1ccc(COC(Cn2ccnc2)c2ccc(Cl)cc2Cl)cc1` (stereo not given): the GI50 is 0.787 µM; the TGI was 7.56 µM and 23.3 µM and 24.9 µM.
Regarding `CC[C@H](C)[C@H](NC(=O)c1cnccn1)C(=O)N(C)[C@H](C[C@@H](OC(C)=O)c1nc(C(=O)N[C@@H](Cc2ccccc2)C[C@H](C)C(=O)OC)cs1)C(C)C`, the GI50 is 2.81 µM and the TGI was greater than 33.3 µM.
`Nc1c(C(=O)Nc2ccc([As](=O)(O)O)cc2)cnc2nnnn12` registered a TGI greater than 100 µM.
Consider `CC(C)n1c(/C=C/[C@@H](O)C[C@@H](O)CC(=O)O)c(-c2ccc(F)cc2)c2ccccc21`, for which the GI50 is 0.554 µM and 0.845 µM; the TGI is greater than 100 µM.
Consider `N#CC(C#N)SCc1ccccc1`, for which the TGI is greater than 100 µM.
On the same count and under the same terms, as for `CCOc1ccc(NCC2CC/C(=C\C=C\c3ccccc3)C2=O)cc1` (stereo not given), the figure is greater than 75.3 µM.
With `Cc1cc(N(CCNc2ccnc3cc(Cl)ccc23)Cc2ccc3c(c2)OCO3)nc(N2CCN(C)CC2)n1`, the GI50 is 3.26 µM and the TGI was found to be 14.7 µM.

In the next assay the test system is RPMI-8226 leukemia. Kind of assay: DTP human tumour cell line panel, 48 h.
The compound `Cc1ccc(C(=O)Cc2nc3c([nH]c2=O)c(C)nn3-c2ccccc2)c(C)c1` showed a TGI greater than 10 µM.
The compound `Clc1ccccc1NN(Cc1ccccn1)c1ccccc1Cl` gave a TGI of 61.4 µM.
Consider `Cn1cc(C2=C(c3cn(C)c4ccc(N)cc34)C(=O)NC2=O)c2ccccc21`, for which the GI50 was greater than 16.5 µM and the TGI is greater than 25 µM.
Take `S=C(N/N=C/c1cc(Cl)cc(Cl)c1)NC12CC3CC(CC(C3)C1)C2`: the GI50 was greater than 100 µM and the TGI was greater than 100 µM.
For `CCCCN1C(=O)CC2[C@@H]3CCc4cc(OC)ccc4C3CC[C@]2(C)C1=O` (stereo not given in full), the TGI is greater than 10 µM.
As to `COc1cc2cc(Oc3ccc(NC(=O)c4cccc(C(F)(F)F)c4)cc3)c(C)nc2cc1OC`, the GI50 was 3.67 µM and the TGI is greater than 100 µM.
The compound `Cc1nc(SCC(N)=O)c2sc(=S)n(-c3ccccc3)c2n1` gave a TGI greater than 10 µM.
The same measure, in the same setting: as for `COc1cc(-c2oc3ccccc3c(=O)c2O)cc(OC)c1OC`, the figure is greater than 100 µM.
`CSc1ccc(/C=C2\CNC/C(=C\c3ccc(SC)cc3)C2=O)cc1`: the GI50 was 61.9 µg/mL; the TGI was > 371 µM and 150 µg/mL.
`C/C(=N\O)c1ccc(Nc2cc(-n3nnc4ccccc43)nc3ccccc23)cc1`: the GI50 is 3.19 µM and the TGI turned out to be 12.8 µM.
With `Clc1ccc(COC(Cn2ccnc2)c2ccc(Cl)cc2Cl)cc1` (stereo not given), the GI50 is 1.9 µM; the TGI is 6.82 µM and 32.3 µM and 23.2 µM.
Consider `CC[C@H](C)[C@H](NC(=O)c1cnccn1)C(=O)N(C)[C@H](C[C@@H](OC(C)=O)c1nc(C(=O)N[C@@H](Cc2ccccc2)C[C@H](C)C(=O)OC)cs1)C(C)C`, for which the GI50 is 1.07 µM and the TGI was greater than 33.3 µM.
For `Nc1c(C(=O)Nc2ccc([As](=O)(O)O)cc2)cnc2nnnn12`, the TGI is greater than 100 µM.
Take `CC(C)n1c(/C=C/[C@@H](O)C[C@@H](O)CC(=O)O)c(-c2ccc(F)cc2)c2ccccc21`: the GI50 was 5.55 µM and 10.3 µM; the TGI is greater than 100 µM.
The compound `N#CC(C#N)SCc1ccccc1` returned a TGI greater than 38.6 µM.
Consider `CCOc1ccc(NCC2CC/C(=C\C=C\c3ccccc3)C2=O)cc1` (stereo not given), for which the TGI is greater than 100 µM.
In the case of `Cc1cc(N(CCNc2ccnc3cc(Cl)ccc23)Cc2ccc3c(c2)OCO3)nc(N2CCN(C)CC2)n1`, the GI50 is 1.88 µM and the TGI was 5.23 µM.

The next assay concerns UACC-62 melanoma. Kind of assay: DTP human tumour cell line panel, 48 h.
As to `Cc1ccc(C(=O)Cc2nc3c([nH]c2=O)c(C)nn3-c2ccccc2)c(C)c1`, the concentration for total growth inhibition (TGI) was greater than 10 µM.
Compound `Clc1ccccc1NN(Cc1ccccn1)c1ccccc1Cl` came in with a TGI of 43.8 µM.
Regarding `Cn1cc(C2=C(c3cn(C)c4ccc(N)cc34)C(=O)NC2=O)c2ccccc21`, the GI50 is 13.1 µM and the TGI is greater than 25 µM.
Take `S=C(N/N=C/c1cc(Cl)cc(Cl)c1)NC12CC3CC(CC(C3)C1)C2`: the GI50 is 10.2 µM and the total growth inhibition concentration (TGI) is greater than 100 µM.
As for `CCCCN1C(=O)CC2[C@@H]3CCc4cc(OC)ccc4C3CC[C@]2(C)C1=O` (stereo not given in full), the TGI was greater than 10 µM.
In the case of `COc1cc2cc(Oc3ccc(NC(=O)c4cccc(C(F)(F)F)c4)cc3)c(C)nc2cc1OC`, the GI50 was 5.27 µM and the TGI is greater than 100 µM.
Compound `Cc1nc(SCC(N)=O)c2sc(=S)n(-c3ccccc3)c2n1` came in with a TGI greater than 10 µM.
`COc1cc(-c2oc3ccccc3c(=O)c2O)cc(OC)c1OC` had a TGI greater than 100 µM.
`CSc1ccc(/C=C2\CNC/C(=C\c3ccc(SC)cc3)C2=O)cc1`: the GI50 was 93.5 µg/mL; the total growth inhibition concentration (TGI) is > 214 µM and 150 µg/mL.
